Laboratory results: US6410591B1, “3,7 or 3 and 7 thia or oxa prostanoic acid derivatives as agents for lowering intraocular pressure” (Allergan Sales, Inc., priority 2001, dated 2002)

Legend:
[1] = system: intraocular pressure; test: Intraocular pressure in dogs, applanation pneumatonometry; assay type: in vivo; settings: for reduced the intraocular pressure (IOP) by: 25 μl to the ocular surface, IOP at 6 hours
Procedure: The compounds were prepared at the said concentrations in a vehicle comprising 0.1% polysorbate 80 and 10 mM TRIS base. Dogs were treated by administering 25 μl to the ocular surface, the contralateral eye received vehicle as a control. Intraocular pressure was measured by applanation pneumatonometry. Dog intraocular pressure was measured immediately before drug administration and at 6 hours thereafter.

[2] = system: intraocular pressure; test: Intraocular pressure in glaucomatous cynomolgus monkeys; assay type: in vivo, glaucomatous cynomonlgus monkey

Row | SMILES | reduced the intraocular pressure (IOP) by ([1]; dose of 0.01% w/v) [%] | reduced the intraocular pressure (IOP) by ([1]; dose of 0.1% w/v) [%] | ocular hypotensive effect ([1]; topical ocular, 25 μl) | effect on IOP ([2]; glaucomatous cynomonlgus monkey, dose of 0.01% w/v) | ocular hypotensive effect ([2]; glaucomatous cynomonlgus monkeys)
1 | CCCCC[C@H](O)/C=C/[C@H]1[C@H](O)CC(=O)[C@@H]1SCCCSCC(=O)O [Compound 9, {3-[(1R,2S,3R)-3-Hydroxy-2-((S)-(E)-3-hydroxyoct-1-enyl)-5-oxocyclopentyl-sulfanyl]propylsulfanyl}acetic acid] | 45 | 50 | pronounced ocular hypotensive effect | – | –
2 | CCCCC[C@H](O)/C=C/[C@H]1[C@H](O)CC(=O)[C@@H]1SCCCSCC(=O)OC(C)C [Compound 10, {3-[(1R,2S,3R)-3-Hydroxy-2-((S)-(E)-3-hydroxyoct-1-enyl)-5-oxocyclopentyl-sulfanyl]propylsulfanyl}acetic acid isopropyl ester] | – | – | – | reduced the IOP | pronounced ocular hypotensive effect
